Measurements reported in US6737383B1, “Herbicidal oxadiazolidines” (priority 1999, dated 2004).

Legend:
wheat = assay: Test B pre/postemergence wheat; type: in vivo, Triticum aestivum
Summary of the method: (§1)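 Response is a visual 0-to-10 score relative to untreated plants, where 0 means no effect and 10 means complete control, taken twelve to sixteen days after application. Treatments went onto soil at planting and onto foliage of 1- to 4-leaf plants, using a surfactant-containing non-phytotoxic solvent.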

crabgrass = assay: Test B pre/postemergence crabgrass; type: in vivo, Digitaria sanguinalis
Summary of the method: as §1

blackgrass = assay: Test B pre/postemergence blackgrass; type: in vivo, Alopecurus myosuroides
Summary of the method: as §1

morningglory = assay: Test B pre/postemergence morningglory; type: in vivo, Ipomoea hederacea
Summary of the method: as §1

rape = assay: Test B pre/postemergence rape; type: in vivo, Brassica napus
Summary of the method: as §1

velvetleaf = assay: Test B pre/postemergence velvetleaf; type: in vivo, Abutilon theophrasti
Summary of the method: as §1

purple nutsedge = assay: Test B pre/postemergence purple nutsedge; type: in vivo, Cyperus rotundus
Summary of the method: as §1

pigweed = assay: Test B pre/postemergence pigweed; type: in vivo, Amaranthus retroflexus
Summary of the method: as §1

sugar beet = assay: Test B pre/postemergence sugar beet; type: in vivo, Beta vulgaris
Summary of the method: as §1

wild oat = assay: Test B pre/postemergence wild oat; type: in vivo, Avena fatua
Summary of the method: as §1

surinam grass = assay: Test B pre/postemergence surinam grass; type: in vivo, Brachiaria decumbens
Summary of the method: as §1

bedstraw = assay: Test B pre/postemergence bedstraw; type: in vivo, Galium aparine; conditions: for Bedstraw plant response rating: 10 is complete control
Summary of the method: as §1

soybean = assay: Test B pre/postemergence soybean; type: in vivo, Glycine max
Summary of the method: as §1

giant foxtail = assay: Test B pre/postemergence giant foxtail; type: in vivo, Setaria faberii
Summary of the method: as §1

corn = assay: Test B pre/postemergence corn; type: in vivo, Zea mays
Summary of the method: as §1

cocklebur = assay: Test B pre/postemergence cocklebur; type: in vivo, Xanthium strumarium
Summary of the method: as §1

[1] = Postemergence, Rate 62 g/ha, scale of 0 to 10, 0 is no effect, 10 is complete control
[2] = Postemergence, Rate 125 g/ha, scale 0 to 10, 0 is no effect, 10 is complete control
[3] = Postemergence, Rate 500 g/ha, scale 0 to 10, 0 is no effect, 10 is complete control
[4] = Preemergence, Rate 62 g/ha, scale of 0 to 10 where 0 is no effect and 10 is complete control
[5] = Preemergence, Rate 125 g/ha, scale 0 to 10, 0 is no effect, 10 is complete control
[6] = Preemergence, Rate 500 g/ha, scale of 0 to 10 where 0 is no effect and 10 is complete control
[7] = Rate 250 g/ha, Postemergence, scale of 0 to 10 where 0 is no effect and 10 is complete control

CCC=CCn1c(=O)on(C(=O)N(c2ccc(F)cc2F)C(C)C)c1=O [Compound 523]
Wheat plant response rating (wheat; [1]): 0 | Wheat plant response rating (wheat; [2]): 0 | Plant response rating, Wheat (wheat; [3]): 2 | Plant response rating, Wheat (wheat; [4]): 0 | Wheat plant response rating (wheat; [5]): 0 | Wheat plant response rating (0 to 10 scale) (wheat; Preemergence, Rate 250 g/ha): 0 | Wheat plant response rating (wheat; [6]): 4 | Plant response rating, Wheat (wheat; [7]): 0 | Crabgrass plant response rating (crabgrass; [1]): 3 | Crabgrass plant response rating (crabgrass; [2]): 8 | Plant response rating, Crabgrass (crabgrass; [3]): 10 | Plant response rating, Crabgrass (crabgrass; [4]): 9 | Crabgrass plant response rating (crabgrass; [5]): 10 | Crabgrass plant response rating (0 to 10 scale) (crabgrass; Preemergence, Rate 250 g/ha): 10 | Crabgrass plant response rating (crabgrass; [6]): 10 | Plant response rating, Crabgrass (crabgrass; [7]): 6 | Blackgrass plant response rating (blackgrass; [1]): 0 | Blackgrass plant response rating (blackgrass; [2]): 0 | Plant response rating, Blackgrass (blackgrass; [3]): 4 | Plant response rating, Blackgrass (blackgrass; [4]): 2 | Blackgrass plant response rating (blackgrass; [5]): 4 | Blackgrass plant response rating (0 to 10 scale) (blackgrass; Preemergence, Rate 250 g/ha): 7 | Blackgrass plant response rating (blackgrass; [6]): 7 | Plant response rating, Blackgrass (blackgrass; [7]): 3 | Morningglory plant response rating (morningglory; [1]): 2 | Morningglory plant response rating (morningglory; [2]): 3 | Plant response rating, Morningglory (morningglory; [3]): 4 | Plant response rating, Morningglory (morningglory; [4]): 2 | Morningglory plant response rating (morningglory; [5]): 4 | Morningglory plant response rating (0 to 10 scale) (morningglory; Preemergence, Rate 250 g/ha): 0 | Morningglory plant response rating (morningglory; [6]): 0 | Plant response rating, Morningglory (morningglory; [7]): 4 | Rape plant response rating (rape; [1]): 0 | Rape plant response rating (rape; [2]): 0 | Plant response rating, Rape (rape; [3]): 2 | Plant response rating, Rape (rape; [4]): 0 | Rape plant response rating (rape; [5]): 0 | Rape plant response rating (0 to 10 scale) (rape; Preemergence, Rate 250 g/ha): 4 | Rape plant response rating (rape; [6]): 7 | Plant response rating, Rape (rape; [7]): 2 | Velvetleaf plant response rating (velvetleaf; [1]): 0 | Velvetleaf plant response rating (velvetleaf; [2]): 3 | Plant response rating, Velvetleaf (velvetleaf; [3]): 4 | Plant response rating, Velvetleaf (velvetleaf; [4]): 0 | Velvetleaf plant response rating (velvetleaf; [5]): 2 | Velvetleaf plant response rating (0 to 10 scale) (velvetleaf; Preemergence, Rate 250 g/ha): 2 | Velvetleaf plant response rating (velvetleaf; [6]): 5 | Plant response rating, Velvetleaf (velvetleaf; [7]): 3 | Nutsedge plant response rating (purple nutsedge; [1]): 0 | Nutsedge plant response rating (purple nutsedge; [2]): 0 | Plant response rating, Nutsedge (purple nutsedge; [3]): 0 | Plant response rating, Nutsedge (purple nutsedge; [4]): 0 | Nutsedge plant response rating (purple nutsedge; [5]): 0 | Nutsedge plant response rating (0 to 10 scale) (purple nutsedge; Preemergence, Rate 250 g/ha): 0 | Nutsedge plant response rating (purple nutsedge; [6]): 0 | Plant response rating, Nutsedge (purple nutsedge; [7]): 0 | Redroot pigweed plant response rating (pigweed; [1]): 0 | Redroot pigweed plant response rating (pigweed; [2]): 2 | Plant response rating, Redroot pigweed (pigweed; [3]): 3 | Plant response rating, Redroot pigweed (pigweed; [4]): 2 | Redroot pigweed plant response rating (pigweed; [5]): 9 | Redroot pigweed plant response rating (0 to 10 scale) (pigweed; Preemergence, Rate 250 g/ha): 9 | Redroot pigweed plant response rating (pigweed; [6]): 9 | Plant response rating, Redroot pigweed (pigweed; [7]): 3 | Sugarbeets plant response rating (sugar beet; [1]): 0 | Sugarbeets plant response rating (sugar beet; [2]): 0 | Plant response rating, Sugarbeets (sugar beet; [3]): 0 | Plant response rating, Sugarbeets (sugar beet; [4]): 3 | Sugarbeets plant response rating (sugar beet; [5]): 4 | Sugarbeets plant response rating (0 to 10 scale) (sugar beet; Preemergence, Rate 250 g/ha): 7 | Sugarbeets plant response rating (sugar beet; [6]): 9 | Plant response rating, Sugarbeets (sugar beet; [7]): 0 | Wild oats plant response rating (wild oat; [1]): 0 | Wild oats plant response rating (wild oat; [2]): 0 | Plant response rating, Wild oats (wild oat; [3]): 2 | Plant response rating, Wild oats (wild oat; [4]): 0 | Wild oats plant response rating (wild oat; [5]): 0 | Wild oats plant response rating (0 to 10 scale) (wild oat; Preemergence, Rate 250 g/ha): 0 | Wild oats plant response rating (wild oat; [6]): 0 | Plant response rating, Wild oats (wild oat; [7]): 0 | B. signalgrass plant response rating (surinam grass; [1]): 0 | B. signalgrass plant response rating (surinam grass; [2]): 0 | Plant response rating, B. signalgrass (surinam grass; [3]): 7 | Plant response rating, B. signalgrass (surinam grass; [4]): 4 | B. signalgrass plant response rating (surinam grass; [5]): 8 | B. signalgrass plant response rating (0 to 10 scale, 0 is no effect, 10 is complete control) (surinam grass; Preemergence, Rate 250 g/ha): 9 | B. signalgrass plant response rating (surinam grass; Preemergence, Rate 500 g/ha, scale 0 to 10, 0 is no effect, 10 is complete control): 5 | Plant response rating, B. signalgrass (surinam grass; [7]): 2 | Bedstraw plant response rating (bedstraw; Postemergence, Rate 62 g/ha, scale of 0 to 10, 0 is no effect): 0 | Bedstraw plant response rating (bedstraw; Postemergence, Rate 125 g/ha, scale 0 to 10, 0 is no effect): 0 | Plant response rating, Bedstraw (bedstraw; [4]): 0 | Bedstraw plant response rating (bedstraw; Preemergence, Rate 125 g/ha, scale 0 to 10, 0 is no effect): 0 | Bedstraw plant response rating (0 to 10 scale) (bedstraw; Preemergence, Rate 250 g/ha): 0 | Bedstraw plant response rating (bedstraw; Preemergence, Rate 500 g/ha, scale 0 to 10, 0 is no effect): 0 | Soybean plant response rating (soybean; [1]): 4 | Soybean plant response rating (soybean; [2]): 5 | Plant response rating, Soybean (soybean; [3]): 5 | Plant response rating, Soybean (soybean; [4]): 0 | Soybean plant response rating (soybean; [5]): 0 | Soybean plant response rating (0 to 10 scale) (soybean; Preemergence, Rate 250 g/ha): 0 | Soybean plant response rating (soybean; [6]): 0 | Plant response rating, Soybean (soybean; [7]): 5 | Giant foxtail plant response rating (giant foxtail; [1]): 2 | Giant foxtail plant response rating (giant foxtail; [2]): 2 | Plant response rating, Giant foxtail (giant foxtail; [3]): 6 | Plant response rating, Giant foxtail (giant foxtail; [4]): 10 | Giant foxtail plant response rating (giant foxtail; [5]): 10 | Giant foxtail plant response rating (0 to 10 scale) (giant foxtail; Preemergence, Rate 250 g/ha): 10 | Giant foxtail plant response rating (giant foxtail; [6]): 10 | Plant response rating, Giant foxtail (giant foxtail; [7]): 4 | Corn plant response rating (corn; [1]): 0 | Corn plant response rating (corn; [2]): 0 | Plant response rating, Corn (corn; [3]): 2 | Plant response rating, Corn (corn; [4]): 0 | Corn plant response rating (corn; [5]): 0 | Corn plant response rating (0 to 10 scale) (corn; Preemergence, Rate 250 g/ha): 0 | Corn plant response rating (corn; [6]): 9 | Plant response rating, Corn (corn; [7]): 2 | Cocklebur plant response rating (cocklebur; [1]): 0 | Cocklebur plant response rating (cocklebur; [2]): 2 | Plant response rating, Cocklebur (cocklebur; [3]): 2 | Plant response rating, Cocklebur (cocklebur; [4]): 0 | Cocklebur plant response rating (cocklebur; [5]): 0 | Cocklebur plant response rating (0 to 10 scale) (cocklebur; Preemergence, Rate 250 g/ha): 0 | Cocklebur plant response rating (cocklebur; [6]): 0 | Plant response rating, Cocklebur (cocklebur; [7]): 2
